Where two headings read alike, the source gives them in different places. One block for each compound: values may come before it.
Assays:
hyaluronidase = target: T1, hyaluronidase (Bos taurus, UniProt Q2YDK3); test: Anti-hyaluronidase activity (modified Morgan-Elson method); format: biochemical; details: hyaluronidase 340NF unit/ml, activating agent Compound 48/80 or CaCl2
T1 sequence (Q2YDK3 36-553): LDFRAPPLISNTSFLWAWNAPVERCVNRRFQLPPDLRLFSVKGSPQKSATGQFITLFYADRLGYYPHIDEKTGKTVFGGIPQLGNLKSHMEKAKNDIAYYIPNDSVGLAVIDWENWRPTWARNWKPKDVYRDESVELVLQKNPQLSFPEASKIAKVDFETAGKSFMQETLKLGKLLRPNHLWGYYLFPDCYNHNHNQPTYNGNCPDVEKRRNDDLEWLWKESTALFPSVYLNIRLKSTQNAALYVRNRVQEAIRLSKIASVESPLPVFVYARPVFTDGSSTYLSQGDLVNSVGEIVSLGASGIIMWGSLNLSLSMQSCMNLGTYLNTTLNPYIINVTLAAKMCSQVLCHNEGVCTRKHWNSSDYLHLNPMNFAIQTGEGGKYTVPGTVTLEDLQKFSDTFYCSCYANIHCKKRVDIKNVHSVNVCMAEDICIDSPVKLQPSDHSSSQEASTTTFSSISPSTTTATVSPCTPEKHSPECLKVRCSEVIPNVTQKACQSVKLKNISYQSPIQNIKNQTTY
Method: A buffer soluticn of hyaluronidase (0.1 ml) was taken in a test tube and 0.2 ml each of the buffer solution of various compounds in various concentrations was added, and the mixture was preincubated at 37° C. for 20 minutes. Then, an activating agent (Compound 48/80 or CaCl2) (0.2 ml) was added to make the total amount 0.5 ml, which was incubated at 37° C. for 20 minutes. Then, potassium hyaluronate buffer solution (0.5 ml) was added, and the mixture was incubated at 37° C. for 40 minutes. After cooling, the mixture was treated with aqueous solution of 0.4N NaOH (0.2 ml) and neutralized to stop the reaction. The resulting product was subjecred to measurement of OD585 by the modified Morgan-Elson Method. […] (The final ccncentration of hyaluronidase was 340NF unit/ml.) [formula]

[1] = tested on: passive cutaneous anaphylaxis (PCA); test: Anti-passive cutaneous anaphylaxis (PCA) activity in rats (Test Example 2); format: in vivo, Wistar strain rats; details: Rattus norvegicus, N 10; for inhibition in vivo at 10 mg/kg: 10 mg/kg PO; for inhibition in vivo at 50 mg/kg: 50 mg/kg PO; for inhibition in vivo at 100 mg/kg: 100 mg/kg PO
Method: (§1) Wistar strain rats were sensitized with ovalbumin using aluminium hydroxide gel and Bordetella Pertussis vaccine as adjuvants. Dilutions of antiserum (16-fold and 32-fold) obtained by collecting blood samples 14 days later were administered subcutaneously in the dorsal skin of the rats of the same strain at the rate of 0.1 ml per spot, and the rats were grown for 48 hours. One hour after peroral administration of the sample solution, a mixture of antigen ovalbumin and Evans-blue dye was administered to the tail venous of the animal according to the ordinary procedure. Thirty minutes later, the animals were sacrificed by exsanguination, and the areas of blue spots (long diameter×short diameter) eliciting on the portion of the antiserum injection at the dorsal skin were measured to obtain the rate of inhibition based on the average value shown by the control animals.

[2] = tested on: experimental ulcer model (Shay); test: Anti-ulcer activity in experimental ulcer model (Shay); format: in vivo, Wistar strain male rats
Method: Using 5 eight-week old Wistar strain male rats of 1 group, the rats were previously fasted for […]. The compound of an amount proportionate to the body weight based on the body weight after fasting was administered intraduodenally or intraperitoneally.
Each test compound was evenly suspended or dissolved in an aqueous solution of 0.5% CMC ccntaining 0.1% Tween 80, and administered at the rate of 0.5 ml per 100 g of body weight of the animal. To the controls, only the solvent was administered.
Test was carried out in accordance with Shay's method. After 48 hours' fasting, 5 animals per group were subjected to laparotomy under ether anesthesia, the tract between pylorus of stomach and duodenum was ligated, and the solution of the compound was administered intraduodenally (id) or intraperitoneally (ip), followed by suturing the laparotomy part. Eight hours after administration of the compound liquid, each animal was sacrificed by ether anesthesia and stomach was removed. Then, evaluation on the ulcer condition on the inner surface of stomach, and determination of the amount of gastric juice, of acidity by alkali titration, and of pepsin titer based on substrate of hemoglovin were made on the stored gastric juice. With regard to the acidity, gastric juice amount, and pepsin titer, the results were shown in inhibition rate (%) based on the average value of the control groups.

[3] = tested on: passive cutaneous anaphylaxis (PCA); test: Anti-passive cutaneous anaphylaxis activity (PCA) in rats (Test Example 9); format: in vivo; details: Rattus norvegicus, po, 10 animals
Method: as §1
This test was conducted in a manner similar to that in Test Example 2, except that the dilutions of antiserum were 12- and 24-folds.

[4] = read-out: Average Inhibition Rate (%) Antiserum Dilution: × 16
[5] = read-out: Average Inhibition Rate (%) Antiserum Dilution: × 32
[6] = read-out: Inhibition, Anti-serum Dilution: × 12
[7] = read-out: Inhibition, Anti-serum Dilution: × 24

IC50 (hyaluronidase; read-out: IC50): 0.025 mM
Compound: O=C(Nc1ccccc1C(=O)O)C(=Cc1ccc[nH]1)C(=O)Nc1ccccc1C(=O)O [Compound 42]

IC50 (hyaluronidase; read-out: IC50): 0.04 mM
Compound: Cn1cccc1C=C(C(=O)Nc1ccccc1C(=O)O)C(=O)Nc1ccccc1C(=O)O [Compound 43, 2,2'-[(1,3-dioxo-2-(1-methyl-1H-pyrrol-2-yl)methylene-1,3-propanediyl)diimino]bisbenzoic acid]

IC50 (hyaluronidase; read-out: IC50): 0.073 mM
Compound: O=C(Nc1ccccc1C(=O)O)C(=Cc1cccnc1)C(=O)Nc1ccccc1C(=O)O [Compound 44]

IC50 (hyaluronidase; read-out: IC50): 0.01 mM
Compound: Cn1cc(C=C(C(=O)Nc2ccccc2C(=O)O)C(=O)Nc2ccccc2C(=O)O)c2ccccc21 [Compound 45]

IC50 (hyaluronidase; read-out: IC50): 0.03 mM
Compound: O=C(Nc1ccccc1C(=O)O)C(=Cc1ccccc1)C(=O)Nc1cc(Cl)ccc1C(=O)O [Compound 46, 4-chloro-2,2'-[(1,3-dioxo-2-phenylmethylene-1,3-propanediyl)diimimo]bisbenzoic acid]

IC50 (hyaluronidase; read-out: IC50): 0.05 mM
Compound: O=C(O)c1ccccc1NC(=O)C(Cc1ccccc1)C(=O)Nc1ccccc1C(=O)O [Compound 50, 2,2'-[(1,3-dioxo-2-phenylmethyl-1,3-propanediyl)diimino]bisbenzoic acid]

Continued, compound first:

Compound: O=C(CC(=O)Nc1cc([N+](=O)[O-])ccc1C(=O)O)Nc1cc([N+](=O)[O-])ccc1C(=O)O [Compound 06, 4,4'-dinitro-2,2'-[(1,3-dioxo-1,3-propanediyl)diimino]bisbenzoic acid]
IC50 (hyaluronidase; IC50 (mM)): 0.013 mM
inhibition in vivo at 10 mg/kg [1, 4]: 8.5%
inhibition in vivo at 10 mg/kg [1, 5]: 11.2%
inhibition in vivo at 50 mg/kg [1, 4]: 14.9%
inhibition in vivo at 50 mg/kg [1, 5]: 13.3%
inhibition in vivo at 100 mg/kg [1, 4]: 18.6%
inhibition in vivo at 100 mg/kg [1, 5]: 18.8%

Compound: O=C(Nc1cc([N+](=O)[O-])ccc1C(=O)O)C(=Cc1ccccc1)C(=O)Nc1cc([N+](=O)[O-])ccc1C(=O)O [Compound 16]
IC50 (hyaluronidase; IC50 (mM)): 0.01 mM
inhibition in vivo at 50 mg/kg [1, 4]: 3.2%
inhibition in vivo at 50 mg/kg [1, 5]: 9%
inhibition in vivo at 100 mg/kg [1, 4]: 11.8%
inhibition in vivo at 100 mg/kg [1, 5]: 12.2%

Compound: COc1ccc(C=C(C(=O)Nc2cc([N+](=O)[O-])ccc2C(=O)O)C(=O)Nc2cc([N+](=O)[O-])ccc2C(=O)O)cc1OC [Compound 22]
IC50 (hyaluronidase; IC50 (mM)): 0.008 mM
inhibition in vivo at 50 mg/kg [1, 4]: 19.7%
inhibition in vivo at 50 mg/kg [1, 5]: 22.6%
inhibition in vivo at 100 mg/kg [1, 4]: 34.6%
inhibition in vivo at 100 mg/kg [1, 5]: 40%
Inhibition % Gastric Acidity ([2]; id 100 mg/kg): 9.1%
Inhibition % secretion amount of gastric juice ([2]; id 100 mg/kg): 11.1%
Inhibition % total pepsin titer ([2]; id 100 mg/kg): 7.2%
Inhibition % Gastric Acidity ([2]; id 200 mg/kg): 13.2%
Inhibition % secretion amount of gastric juice ([2]; id 200 mg/kg): 11.6%
Inhibition % total pepsin titer ([2]; id 200 mg/kg): 10.1%
Inhibition % Gastric Acidity ([2]; id 300 mg/kg): 15.7%
Inhibition % secretion amount of gastric juice ([2]; id 300 mg/kg): 24.9%
Inhibition % total pepsin titer ([2]; id 300 mg/kg): 8.3%
Inhibition % Gastric Acidity ([2]; ip 50 mg/kg): 38.2%
Inhibition % secretion amount of gastric juice ([2]; ip 50 mg/kg): 29.0%
Inhibition % total pepsin titer ([2]; ip 50 mg/kg): 37.2%

Compound: COc1cc(C=C(C(=O)Nc2ccccc2C(=O)O)C(=O)Nc2ccccc2C(=O)O)cc(OC)c1OC [Compound 23]
IC50 (hyaluronidase; read-out: IC50): 0.03 mM
Inhibition % Gastric Acidity ([2]; id 100 mg/kg): 32.5%
Inhibition % secretion amount of gastric juice ([2]; id 100 mg/kg): 8.5%
Inhibition % total pepsin titer ([2]; id 100 mg/kg): 31.1%
Inhibition % Gastric Acidity ([2]; id 200 mg/kg): 40.2%
Inhibition % secretion amount of gastric juice ([2]; id 200 mg/kg): 11.2%
Inhibition % total pepsin titer ([2]; id 200 mg/kg): 41.2%

Compound: O=C(Nc1ccccc1C(=O)O)C(=Cc1ccc2c(c1)OCO2)C(=O)Nc1ccccc1C(=O)O [Compound 25]
IC50 (hyaluronidase; read-out: IC50): 0.013 mM
Inhibition % Gastric Acidity ([2]; id 100 mg/kg): 45.2%
Inhibition % secretion amount of gastric juice ([2]; id 100 mg/kg): 25.5%
Inhibition % total pepsin titer ([2]; id 100 mg/kg): 32.1%
Inhibition % Gastric Acidity ([2]; id 200 mg/kg): 80.0%
Inhibition % secretion amount of gastric juice ([2]; id 200 mg/kg): 50.7%
Inhibition % total pepsin titer ([2]; id 200 mg/kg): 40.5%
Inhibition % Gastric Acidity ([2]; ip 50 mg/kg): 67.4%
Inhibition % secretion amount of gastric juice ([2]; ip 50 mg/kg): 53.4%
Inhibition % total pepsin titer ([2]; ip 50 mg/kg): 82.2%

Compound: Cc1ccc(C=C(C(=O)Nc2ccccc2C(=O)O)C(=O)Nc2ccccc2C(=O)O)cc1 [Compound 26, 2,2'-[[1,3-dioxo-2-(4-methyl)phenylmethylene-1,3-propanediyl]diimino]bisbenzoic acid]
IC50 (hyaluronidase; read-out: IC50): 0.02 mM
inhibition in vivo at 50 mg/kg [1, 4]: 8.3%
inhibition in vivo at 50 mg/kg [1, 5]: 10%
inhibition in vivo at 100 mg/kg [1, 4]: 16.4%
inhibition in vivo at 100 mg/kg [1, 5]: 19.1%

Compound: CC(=O)Nc1ccc(C=C(C(=O)Nc2ccccc2C(=O)O)C(=O)Nc2ccccc2C(=O)O)cc1 [Compound 29]
IC50 (hyaluronidase; read-out: IC50): 0.02 mM
inhibition in vivo at 100 mg/kg [1, 4]: 3.4%
inhibition in vivo at 100 mg/kg [1, 5]: 3.9%
Inhibition % Gastric Acidity ([2]; id 100 mg/kg): 0%
Inhibition % secretion amount of gastric juice ([2]; id 100 mg/kg): 0%
Inhibition % total pepsin titer ([2]; id 100 mg/kg): 0%
Inhibition % Gastric Acidity ([2]; id 200 mg/kg): 0.7%
Inhibition % secretion amount of gastric juice ([2]; id 200 mg/kg): 0.5%
Inhibition % total pepsin titer ([2]; id 200 mg/kg): 0%

Compound: O=C(Nc1ccccc1C(=O)O)C(=Cc1ccsc1)C(=O)Nc1ccccc1C(=O)O [Compound 41, 2,2'-[(1,3-dioxo-2-(3-thienyl)methylene-1,3-propanediyl)diimino]bisbenzoicacid]
IC50 (hyaluronidase; read-out: IC50): 0.06 mM

Compound: CC(C)OC(=O)c1ccccc1NC(=O)C(=Cc1ccccc1)C(=O)Nc1ccccc1C(=O)OC(C)C [Compound 53, diisopropyl 2,2'-[(1,3-dioxo-2-phenylmethylene-1,3-propanediyl)diimino]bisbenzoate]
inhibition in vivo at 50 mg/kg [3, 6]: 26.1%
inhibition in vivo at 50 mg/kg [3, 7]: 23.9%

Compound: O=C(Nc1ccccc1C(=O)OC1OC(=O)c2ccccc21)C(=Cc1ccccc1)C(=O)Nc1ccccc1C(=O)OC1OC(=O)c2ccccc21 (stereo not shown) [Compound 56]
inhibition in vivo at 10 mg/kg [3, 6]: 44.7%
inhibition in vivo at 10 mg/kg [3, 7]: 43.6%
inhibition in vivo at 50 mg/kg [3, 6]: 49.7%
inhibition in vivo at 50 mg/kg [3, 7]: 58.4%

Compound: CC(C)(C)C(=O)OCOC(=O)c1ccccc1NC(=O)C(=Cc1ccccc1)C(=O)Nc1ccccc1C(=O)OCOC(=O)C(C)(C)C [Compound 57, di(pivaloyloxymethyl)-2,2'-[(1,3-dioxo-2-phenylmethylene-1,3-propanediyl)diimino]bisbenzoate]
inhibition in vivo at 10 mg/kg [3, 6]: 37%
inhibition in vivo at 10 mg/kg [3, 7]: 30.9%
inhibition in vivo at 50 mg/kg [3, 6]: 45%
inhibition in vivo at 50 mg/kg [3, 7]: 50.1%

Compound: CCOC(=O)OC(C)OC(=O)c1ccccc1NC(=O)C(=Cc1ccccc1)C(=O)Nc1ccccc1C(=O)OC(C)OC(=O)OCC (stereo not shown) [Compound 58, di[1-(ethoxycarbonyloxy)ethyl]-2,2'-[(1,3-dioxo-2-phenylmethylene-1,3-propanediyl)diimino]bisbenzoate]
inhibition in vivo at 10 mg/kg [3, 6]: 40.2%
inhibition in vivo at 10 mg/kg [3, 7]: 43.1%
inhibition in vivo at 50 mg/kg [3, 6]: 50.8%
inhibition in vivo at 50 mg/kg [3, 7]: 57.6%

Compound: Cc1oc(=O)oc1COC(=O)c1ccccc1NC(=O)C(=Cc1ccccc1)C(=O)Nc1ccccc1C(=O)OCc1oc(=O)oc1C [Compound 59, di[(5-methyl-2-oxo-1,3-dioxole-4-yl)methyl]-2,2'-[(1,3-dioxo-2-phenylmethylene-1,3-propanediyl)diimino]bisbenzoate]
inhibition in vivo at 10 mg/kg [3, 6]: 22%
inhibition in vivo at 10 mg/kg [3, 7]: 25.1%
inhibition in vivo at 50 mg/kg [3, 6]: 65.7%
inhibition in vivo at 50 mg/kg [3, 7]: 62%
